Reference: patent US20130296434A1, “FORMULATIONS AND METHODS FOR TREATING AMYLOIDOSIS” (Kiacta Sarl, priority 2005, published 2013)

Key:
[1] = Pharmacokinetics of single rising oral doses of PDS and food effect in healthy male subjects; type: in vivo, human; conditions: for AUC(0-inf) / AUC(0-t) / Cmax / Tmax: male, po; for AUC(0-inf) / AUC(0-t) / Cmax: mean; for Tmax: median
Text: In the following examples, terms are as defined below. The pharmacokinetic parameters were derived by non-compartmental analysis using WinNonlin® (Pharsight Corp., Mountain View, Calif., USA). • Cmax—the maximum observed plasma concentration. • Tmax—the time of occurrence of Cmax. • AUC0-t—the area under the plasma concentration versus time curve from time zero to the last sampling time at which concentrations were at or above the limit of quantification, calculated by the linear trapezoidal rule. • AUC∞—the area under the plasma concentrations versus time curve from time zero to infinity, calculated from AUC0-t+(Clast/λz), where Clast is the last observed quantifiable concentration and λz is the apparent terminal rate constant. • t1/2 the apparent terminal half-life, calculated from ln 2/λz
The safety, tolerability and pharmacokinetics of PDS following single oral administration in healthy male adult volunteers is determined. The effect of food on the pharmacokinetics of PDS is also determined. The first part of the study is a randomized, double-blind, placebo-controlled study to assess the pharmacokinetic profile of 6 single rising oral doses of PDS in healthy male subjects. The second part of this study is an open-label, two-way crossover study to investigate the effect of food on the pharmacokinetic profile of a single oral dose of PDS under fasted and fed conditions. Blood samples are collected during 36 hours following dosing. Plasma concentrations of PDS are determined using validated HPLC methods. […] The extent of systemic exposure (AUC and Cmax) to PDS increases with increasing dose. […] PDS should therefore not be given concomitantly with a high fat meal.

[2] = system: subjects having secondary (AA) amyloidosis; assay: Randomized, double-blind, placebo-controlled 24-month efficacy and safety study of PDS in secondary (AA) amyloidosis; type: in vivo, human
Experimental: A multicenter, multinational, randomized, double-blind, placebo-controlled, and parallel-design study to assess the efficacy and safety of 1,3-propanedisulfonic acid disodium salt (PDS) in subjects having secondary (AA) amyloidosis is conducted. […] If ClCr decreases or increases to the next lower or higher range level, the dose regimen is adjusted accordingly. Subject medication is administered orally (capsule). Each patient is evaluated on 16 occasions, including on-site visits at months 0 (baseline), 1, 4, 8, 12, 16, 20 and 24.
The volume of urine is recorded in the case report form at study site and an aliquot of urine is sent to the central laboratory for determination of urinary creatinine. A blood sample is collected to measure serum creatinine. The creatinine clearance (ClCr) is calculated using the following formula and recorded in the case report form: […]
The creatinine clearance normalized for body surface area is calculated by dividing the creatinine clearance by the body surface area.
Subjects are classified into three categories based on a composite assessment of renal function at the end of the 24 month treatment period compared to baseline. […] Subjects are classified as “improved” if the following clinical milestones of improvement are met: ≧50% increase in ClCr and no clinical milestones of worsening. Subjects are classified as “stable” if none of the clinical milestones of worsening or improvement are met.
All subjects are categorized according to the evolution of their disease (“worse”, “stable”, or “improved”). This constitutes the primary efficacy endpoint for the study and is analyzed in the Intent-to-Treat (ITT) population according to two pre-specified statistical methodologies: 1) the Cochran-Mantel-Haenszel row mean scores test (CMH test) to compare the percentage of subjects who reach each category at the end of the study in comparison to their status at Baseline, and 2) a proportional hazards regression model (Cox analysis) to compare between treatment groups both the number of first “worse” events, as well as when they occur, thus making more use of all available data. Both methodologies are adjusted for the stratification of nephrotic status at Baseline (nephrotic vs non-nephrotic) as pre-specified.
The primary efficacy endpoint is a composite assessment of clinical improvement/worsening of renal function. At the end of the study, the subjects are classified into three categories, “Worse” and death (all causes), “Stable”, or “Improved”. […] The subjects are classified as “stable” if none of the clinical milestones of worsening or improvement are met. […] The term “End of Study” is defined as Month 24 for subjects who completed the study and as the last available measurement for the subjects who discontinued early.
The secondary efficacy endpoints are an assessment of clinical improvement/worsening of both renal and gastrointestinal functions. At the end of the study, subjects are classified into three categories based on their condition: worse, stable, or improved.
This parameter will be normalized for body surface area and the least-squares estimate of the within-subject slope will be calculated using all available creatinine clearance measurements. Although the study is for 2 years, the slope will be expressed as an annual rate of change.
Change from baseline to End of Study in Proteinuria and Creatinine Clearance will be analyzed as a secondary efficacy endpoint. The End of Study is defined as Month 24 for subjects who completed and as the last available visit for subjects who discontinued early. At Screening, proteinuria, creatinine clearance, and serum creatinine are to be collected from two distinct assessments which are to have been at least 1 week apart and within 3 months prior to study entry (Baseline visit). For the creatinine clearance parameter, the normalized value will be used.

[3] = human, plasma, 100 mg, single oral 100 mg, healthy male subjects, n = 6
[4] = human, plasma, 200 mg, single oral 200 mg, healthy male subjects, n = 5
[5] = human, plasma, 400 mg, single oral 400 mg, healthy male subjects, n = 5
[6] = human, plasma, 800 mg, single oral 800 mg, healthy male subjects, n = 10
[7] = human, plasma, 1600 mg, single oral 1600 mg (rising dose part), healthy male subjects, n = 5
[8] = human, plasma, 1600 mg, single oral 1600 mg, Fasted, healthy male subjects, n = 8
[9] = human, plasma, 1600 mg, single oral 1600 mg, Fed (high-fat meal), healthy male subjects, n = 8
[10] = human, plasma, 2400 mg, single oral 2400 mg, healthy male subjects, n = 5
[11] = End of the Study, compared to placebo
[12] = composite renal assessment at end of 24 month treatment, 400-1200 mg BID by ClCr, p value=0.06

O=S(=O)([O-])CCCS(=O)(=O)[O-].[Na+].[Na+] [PDS, 1,3-propanedisulfonic acid, disodium salt] gave a half-life ([1]; human, plasma, single oral doses 100-2400 mg, healthy male subjects, range of means, read-out: mean half-life (T1/2)) of 120 to 1560 min, an AUC(0-inf) [1, 3] of 419 ng·h/mL and an AUC(0-t) [1, 3] of 240 ng·h/mL. For the same compound, the Cmax [1, 3] was 99.5 ng/mL, the Tmax [1, 3] was 60 min and the AUC(0-t) [1, 4] was 626 ng·h/mL. It also gave a Cmax [1, 4] of 164 ng/mL, a Tmax [1, 4] of 60 min and an AUC(0-inf) [1, 5] of 2900 ng·h/mL. For the same compound, the AUC(0-t) [1, 5] was 1880 ng·h/mL, the Cmax [1, 5] was 1080 ng/mL and the Tmax [1, 5] was 30 min. It also gave an AUC(0-inf) [1, 6] of 4550 ng·h/mL, an AUC(0-t) [1, 6] of 4840 ng·h/mL and a Cmax [1, 6] of 2870 ng/mL. It also gave a Tmax [1, 6] of 30 min, an AUC(0-t) [1, 7] of 8410 ng·h/mL and a Cmax [1, 7] of 4760 ng/mL. The Tmax [1, 7] was 30 min, the AUC(0-inf) [1, 8] was 12800 ng·h/mL and the AUC(0-t) [1, 8] was 11500 ng·h/mL. For the same compound, the Cmax [1, 8] was 6460 ng/mL, the Tmax [1, 8] was 30 min and the AUC(0-inf) [1, 9] was 6320 ng·h/mL. The AUC(0-t) [1, 9] was 4010 ng·h/mL, the Cmax [1, 9] was 563 ng/mL and the Tmax [1, 9] was 135 min. For the same compound, the AUC(0-inf) [1, 10] was 12900 ng·h/mL, the AUC(0-t) [1, 10] was 12000 ng·h/mL and the Cmax [1, 10] was 6050 ng/mL. The Tmax [1, 10] was 30 min, the “effect of food on systemic availability” value ([1]; single oral 1600 mg, fed vs fasted conditions) was “decrease in both the rate and extent of systemic availability” and the “dose dependence of systemic exposure (AUC and Cmax)” value ([1]; single oral doses 100-2400 mg, healthy male subjects) was “reasonably proportional to the administered dose”. The “mean difference in slope of creatinine clearance, treated vs. placebo” value ([2]; End of the Study) was 4.7 mL/min/1.73 m^2/year, the “median time to the first worse event” value ([2]; End of the Study, PDS treated subjects) was 14.5 months and the “reduction in the rate of loss of renal function (slope of creatinine clearance over time)” value ([2]; End of the Study, PDS-treated vs placebo) was 30.1%. The “reduction of risk of dialysis/ESRD” value [2, 11] was 46%, the “reduction of risk of doubling of serum creatinine” value [2, 11] was 59% and the “reduction of risk of ≧50% decrease in creatinine clearance” value [2, 11] was 52%. The “median time to dialysis, longer than placebo” value ([2]; End of the Study, patients progressing to dialysis) was 5.3 months, the “median time to doubling of serum creatinine, longer than placebo” value ([2]; End of the Study, patients with a doubling of SCr) was 3.6 months and the “median time to at least a 50% decrease in creatinine clearance, longer than placebo” value ([2]; End of the Study, patients with a ≧50% decrease in CrCl) was 4.4 months. For the same compound, the “risk of any worse event of renal decline or all-cause mortality, relative to the risk for placebo” value ([2]; End of the Study, printed as reduction to this % of the risk for placebo) was 42%, the “median time to the first worse event, longer than placebo” value ([2]; End of the Study, treated vs placebo) was 6.4 months and the “creatinine clearance, Change from End of Study to Baseline, Median” value ([2]; PDS group N = 89, n 85) was −11.35 mL/min/1.73 m^2. For the same compound, the “slope of creatinine clearance normalized for body surface area, Mean (S.E.)” value ([2]; PDS group N = 89, n 85, annual rate of change) was −10.9 (5.1) mL/min/1.73 m^2/year, the “slope of creatinine clearance normalized for body surface area, Median” value ([2]; PDS group N = 89, n 85, annual rate of change, P-value vs placebo 0.025) was −5.9 mL/min/1.73 m^2/year and the “creatinine clearance, Change from End of Study to Baseline, Mean (S.E.)” value ([2]; PDS group N = 89, n 85, p-value vs placebo 0.058) was −14.68 (4.19) mL/min/1.73 m^2. The “fewer subjects classified as worse compared to placebo” value [2, 12] was 13.4%, the “more subjects stable or improved compared to placebo” value [2, 12] was 13.4% and the “estimated difference in CrCl change, PDS vs placebo” value ([2]; end of the study) was 7.7 mL/min/1.73 m^2. For the same compound, the “mean difference in CrCl (baseline to end of study)” value ([2]; end of the study, PDS treated subjects) was −14.7±4.2 mL/min/1.73 m^2.
